Test results taken from patent US20240148821A1, “PHARMACEUTICAL USE OF CYCLIC PEPTIDE COMPOUND” (CHUGAI SEIYAKU KABUSHIKI KAISHA, priority 2021, published 2024).
Numbered stars: 1 amine (or outer) side, 2 acyl side, 3 side chain; on linkers, the order of the positions; unused ones are H or OH. Bridge positions count the residues as written; N and C are the ends. Square brackets hold non-standard residues; d marks the D form. Peptide text beside a SMILES is read from it. * marks the point of attachment. hPhe(3-Cl-4-CF3) = N[C@@H](CCc1ccc(C(F)(F)F)c(Cl)c1)C(=O)O; hPhe(3-F,4-CF3) = N[C@@H](CCc1ccc(C(F)(F)F)c(F)c1)C(=O)O; X27 = CN([C@@H](Cc1ccc(C(F)(F)F)nc1)C(=O)[*:2])[*:1]; NMePhe(4-CF3) = CN[C@@H](Cc1ccc(C(F)(F)F)cc1)C(=O)O; X25 = COc1ccc(C[C@@H](C(=O)[*:2])N(C)[*:1])cn1; NMeAbu(4,4,4-F3) = CN[C@@H](CC(F)(F)F)C(=O)O; NMePhe(4-Me) = CN[C@@H](Cc1ccc(C)cc1)C(=O)O; NMedβ3hAla = C[C@H](CC(=O)[*:2])N(C)[*:1]; Pro(4,4-F2) = O=C(O)[C@@H]1CC(F)(F)CN1; NMehPhe = CN[C@@H](CCc1ccccc1)C(=O)O; NMeCha = CN[C@@H](CC1CCCCC1)C(=O)O; cisHyp = O=C(O)[C@@H]1C[C@H](O)CN1; Hyp = O=C(O)[C@@H]1C[C@@H](O)CN1; NMeChg = CN[C@H](C(=O)O)C1CCCCC1; NMeI = CC[C@H](C)[C@H](NC)C(=O)O; NMeD = CN[C@@H](CC(=O)O)C(=O)O; NMeL = CN[C@@H](CC(C)C)C(=O)O; NMeV = CN[C@H](C(=O)O)C(C)C; d(β3hA) = C[C@@H](N)CC(=O)O; NMeS = CN[C@@H](CO)C(=O)O; Morpholide = C1CN(*)CCO1; NMeA = CN[C@@H](C)C(=O)O; NMeAib = CNC(C)(C)C(=O)O; Piperidide = C1CCN(*)CC1; Pyrrolidide = C1CCN(*)C1; Ac5c = NC1(C(=O)O)CCCC1; Aze = O=C(O)[C@@H]1CCN1; Isopentyl = CC(C)CC*; Sar = CNCC(=O)O

Assays:
[1] = target: protein-protein interaction between Kras and SOS1 (biotin-tagged human Kras loaded with GDP, His-tagged human SOS1) (Homo sapiens (Human), UniProt P01116, G12D); test: Protein-protein interaction inhibition between Kras and SOS1 (KrasG12D-SOS PPI) using AlphaScreen; assay type: biochemical; details: AlphaScreen; biotin-tagged human Kras loaded with GDP, His-tagged human SOS1; read-out: KRAS G12D-SOS PPI IC50;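 note: kras produced in E. coli, Ni-coupled donor beads and streptavidin acceptor beads, excitation 680 nm with emission detected at 520–620 nm via singlet oxygen transfer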
[2] = system: Human pancreatic cancer cell line AsPC-1 (G12D mutation Kras); test: AsPC-1 cell growth inhibition (AsPC-1 CGI); assay type: cell-based; details: read-out: AsPC-1 cell growth inhibition, 50% growth inhibitory concentration (IC50 value); 96 hours, CellTiter-Glo, values classified in ranges
Method: Test compounds were serially dilated with dimethyl sulfoxide, and 200 nL was then dispensed to a U-bottom 96-well plate using Labcyte Echo. […] The cell suspension was dispensed to a. plate containing a test compound at 100 μL per well and incubated at 37° C. in a 5% carbon dioxide gas incubator. 96 hours later, 80 μL of CellTiter-Glo (Promega) was added to each well and fluorescence was measured.

Row | Compound | IC50 [1] | IC50 [2]
1 | CC[C@H](C)[C@@H]1NC(=O)[C@H](CC(C)C)N(C)C(=O)C[C@@H](C(=O)N2CCCCC2)N(C)C(=O)[C@H](C2CCCCC2)N(C)C(=O)C2(CCCC2)NC(=O)[C@H](Cc2ccc(OC)nc2)N(C)C(=O)[C@H](CCc2ccc(C(F)(F)F)c(Cl)c2)NC(=O)CN(C)C(=O)[C@H](CC2CCCCC2)N(C)C(=O)CN(C)C(=O)CN(C)C1=O [Compound 592] ([NMeL]I[Sar][Sar][NMeCha][Sar][hPhe(3-Cl-4-CF3)][X25][Ac5c][NMeChg][NMeD]-Piperidide; lactam N-11) | 26 nM | > 500 nM
2 | CC[C@H](C)[C@@H]1NC(=O)[C@H](C)N(C)C(=O)C[C@@H](C)N(C)C(=O)[C@H](CC(C)C)NC(=O)C(C)(C)N(C)C(=O)[C@H](CC(C)C)NC(=O)[C@H](CCc2ccc(C(F)(F)F)c(Cl)c2)NC(=O)CN(C)C(=O)[C@H](Cc2ccc(C)cc2)N(C)C(=O)CN(C)C(=O)CN(C)C1=O [Compound 1398] (cyclo(I[Sar][Sar][NMePhe(4-Me)][Sar][hPhe(3-Cl-4-CF3)]L[NMeAib]L[NMedβ3hAla][NMeA])) | 6.6 nM | > 500 nM
3 | CC[C@H](C)[C@@H]1NC(=O)[C@H](COCCC(C)C)N(C)C(=O)C[C@@H](C(=O)N2CCCCC2)N(C)C(=O)[C@H](C(C)C)N(C)C(=O)C2(CCCC2)NC(=O)[C@@H]2CCCN2C(=O)[C@H](CCc2ccc(C(F)(F)F)c(Cl)c2)NC(=O)CN(C)C(=O)[C@H](CC2CCCCC2)N(C)C(=O)[C@@H]2CCN2C(=O)[C@H](C)N(C)C1=O [Compound 661] ([NMeS](Isopentyl)I[NMeA][Aze][NMeCha][Sar][hPhe(3-Cl-4-CF3)]P[Ac5c][NMeV][NMeD]-Piperidide; lactam N-11) | 13 nM | > 500 nM
4 | CC[C@H](C)[C@@H]1NC(=O)[C@H](CC(C)C)N(C)C(=O)C[C@@H](C(=O)N2CCCCC2)N(C)C(=O)[C@H](C2CCCCC2)N(C)C(=O)C2(CCCC2)NC(=O)[C@H](Cc2ccc(C(F)(F)F)nc2)N(C)C(=O)[C@H](CCc2ccc(C(F)(F)F)c(Cl)c2)NC(=O)CN(C)C(=O)[C@H](CC2CCCCC2)N(C)C(=O)CN(C)C(=O)CN(C)C1=O [Compound 10] ([NMeL]I[Sar][Sar][NMeCha][Sar][hPhe(3-Cl-4-CF3)][X27][Ac5c][NMeChg][NMeD]-Piperidide; lactam N-11) | 18 nM | > 500 nM
5 | CCO[C@@H]1C[C@H]2C(=O)NC3(CCCC3)C(=O)N(C)[C@@H](C3CCCCC3)C(=O)N(C)[C@H](C(=O)N3CCCC3)CC(=O)N(C)[C@@H](CC(F)(F)F)C(=O)N[C@@H]([C@@H](C)CC)C(=O)N(C)CC(=O)N(C)CC(=O)N(C)[C@@H](CC3CCCCC3)C(=O)N(C)CC(=O)N[C@@H](CCc3ccc(C(F)(F)F)c(Cl)c3)C(=O)N2C1 [Compound 1369] ([NMeAbu(4,4,4-F3)]I[Sar][Sar][NMeCha][Sar][hPhe(3-Cl-4-CF3)][Hyp](Et)[Ac5c][NMeChg][NMeD]-Pyrrolidide; lactam N-11) | 0.55 nM | ≤ 20 nM
6 | CC[C@H](C)[C@@H]1NC(=O)[C@H](C)N(C)C(=O)C[C@@H](C(=O)N2CCCCC2)N(C)C(=O)[C@H](C(C)C)N(C)C(=O)C2(CCCC2)NC(=O)[C@@H]2CCCN2C(=O)[C@H](CCc2ccc(C(F)(F)F)c(Cl)c2)NC(=O)CN(C)C(=O)[C@H](CC2CCCCC2)N(C)C(=O)[C@@H]2CCN2C(=O)[C@H](CCc2ccccc2)N(C)C1=O [Compound 1559] ([NMeA]I[NMehPhe][Aze][NMeCha][Sar][hPhe(3-Cl-4-CF3)]P[Ac5c][NMeV][NMeD]-Piperidide; lactam N-11) | 28 nM | > 500 nM
7 | CC[C@H](C)[C@@H]1NC(=O)[C@H](CC(C)C)N(C)C(=O)C[C@@H](C)NC(=O)[C@H](CC(C)C)N(C)C(=O)C2(CCCC2)NC(=O)[C@@H]2C[C@H](O)CN2C(=O)[C@H](CCc2ccc(C(F)(F)F)c(F)c2)NC(=O)CN(C)C(=O)[C@H](CC2CCCCC2)N(C)C(=O)CN(C)C(=O)CN(C)C1=O [Compound 1529] (cyclo([Ac5c][NMeL][d(β3hA)][NMeL]I[Sar][Sar][NMeCha][Sar][hPhe(3-F,4-CF3)][cisHyp])) | 11 nM | > 500 nM
8 | CC[C@H](C)[C@@H]1NC(=O)[C@H](CC(C)C)N(C)C(=O)C[C@@H](C(=O)N2CCOCC2)N(C)C(=O)[C@H]([C@@H](C)CC)N(C)C(=O)C2(CCCC2)NC(=O)[C@@H]2CC(F)(F)CN2C(=O)[C@H](CCc2ccc(C(F)(F)F)c(Cl)c2)NC(=O)CN(C)C(=O)[C@H](Cc2ccc(C(F)(F)F)cc2)N(C)C(=O)[C@@H]2CCN2C(=O)[C@H](C)N(C)C1=O [Compound 1311] ([NMeL]I[NMeA][Aze][NMePhe(4-CF3)][Sar][hPhe(3-Cl-4-CF3)][Pro(4,4-F2)][Ac5c][NMeI][NMeD]-Morpholide; lactam N-11) | 0.51 nM | ≤ 20 nM
